Experimental findings from patent US11420984B2, “Arginase inhibitors and methods of use thereof” (AstraZeneca AB, priority 2018, dated 2022) are described below.

Like-named read-outs stand apart in the source and are kept apart here. Marks after values point to notes of the source that are not given here.

Data set [1] is described as follows: Bioavailability / pharmacokinetic study in male rats (IV and PO). Type of data set: in vivo, rat. Particulars: plasma; for Vd: read-out: Vdss; for AUC / Cmax / Tmax: PO 5 mg/kg; for bioavailability: PO 5 mg/kg vs IV 2 mg/kg. As to the method:
Example 8 was formulated in 0.9% w/v saline pH 4 (adjusted with 1M HCl) for IV dosing. The formulation was dosed at 2 mg/kg by femoral catheter to two male rats each (170-250 g). Jugular vein catheter serial blood samples were taken at 0.033, 0.083, 0.167, 0.5, 1, 2, 4, 8, and 24 hrs post-dose. For PO dosing, Example 8 was formulated in deionized water pH 4 (adjusted with 1M HCl) and dosed at 5 mg/kg by oral gavage to two male rats each (170-250 g). Serial blood samples were taken by jugular vein catheter at 0.25, 0.5, 1, 1.5, 2, 3, 4, 8, and 24 hrs post dose. Plasma samples were generated from blood using low speed centrifugation. […] The samples and standards were extracted by precipitation with two volumes of acetonitrile followed by centrifugation. […] Where appropriate, measured and not nominal doses were used to calculate bioavalability.

Experiment in data set [2]: as above
Type of data set: in vivo. Particulars: Example 7 when dosed as payload, male rat.

The next data set has as its target Human Arginase 1 (Homo sapiens (Human), UniProt P05089). The experiment in a line: Human Arginase 1 enzyme inhibition (thioarginine/DTNB absorbance assay). In kind it is biochemical. Particulars: recombinant enzyme 5 nM, 0.5 mM thioarginine premix, 60 min. Here is the method:
(§1) The thiol group was detected with Ellman's reagent, 5,5′-dithiobis(2-nitrobenzoic acid) (DTNB). DTNB reacts with the thiol to give the mixed disulfide and 2-nitro-5-thiobenzoic acid (TNB) which is quantified by the absorbance of the anion (TNB^2−) at 412 nm.
(§2) The assays were run in clear 384 well plates (Greiner cat no: 781101). […] Two pre-mixes were prepared from reagents thawed immediately before addition to assay plates. Pre-mix one comprised human Arginase 1 or human Arginase 2, at a final concentration of 5 nM and 0.5 mM DTNB in assay buffer, 45 mM HEPES pH7.5, brij 35, 0.045% (w/v) and 100 μM MnCl2. Pre-mix two comprised freshly thawed 0.5 mM thioarginine in assay buffer.
(§3) Assay plates were centrifuged prior to reading absorbance at 412 nm in a Pherastar multi-mode plate reader to collect data at time point 0 (T0). The plates were incubated at room temperature for 60 min prior to reading again to collect data at time point 1 (T1). Data is derived by subtracting the A412 signal measured at T0 (time point 0) from that measured at T1 (time point 1). The data was transformed to % effect using the equation: Compound % effect=100*[(X−min)/(max−min)], where X represents the normalized value for the compound based on the Min (vehicle) and Max (reference compound) inhibition control.

For the next data set, the target named is Human Arginase 2 (Homo sapiens (Human), UniProt P78540). The experiment in a line: Human Arginase 2 enzyme inhibition (thioarginine/DTNB absorbance assay). The conditions noted are these: recombinant enzyme 5 nM, 0.5 mM thioarginine premix, 60 min. Type of data set: biochemical. Here is the method:
as §1, §2, §3

Data set [3] can be described thus: Interconversion of Compound B to Compound A observed by NMR. In kind it is physicochemical. The source says:
Compound B (Example 19) was obtained by the intramolecular cyclization of Example 9 (Compound A) via an interconversion process. Furthermore, interconversions between Compound A (Example 9) and Compound B were observed under various conditions. For example, Compound B was converted to Compound A in the presence of water and such conversion was proportional to the concentration of water in the solvent. […] In d6-DMSO, compound B predominates, while there is a proportional increase in compound A with increase in D2O concentration. The proportion of compound A relative to compound B in 100% D2O reaches approximately 90%. Furthermore, Compound B was converted to Compound A under acidic condition.

Where [4] appears, read: pro-drug itself, observed when dosed as pro-drug, male rat, IV 2 mg/kg.
The mark [5] stands for this setting: pro-drug itself, observed when dosed as pro-drug, male rat.

Chain of Human Arginase 1 (P05089 whole entry): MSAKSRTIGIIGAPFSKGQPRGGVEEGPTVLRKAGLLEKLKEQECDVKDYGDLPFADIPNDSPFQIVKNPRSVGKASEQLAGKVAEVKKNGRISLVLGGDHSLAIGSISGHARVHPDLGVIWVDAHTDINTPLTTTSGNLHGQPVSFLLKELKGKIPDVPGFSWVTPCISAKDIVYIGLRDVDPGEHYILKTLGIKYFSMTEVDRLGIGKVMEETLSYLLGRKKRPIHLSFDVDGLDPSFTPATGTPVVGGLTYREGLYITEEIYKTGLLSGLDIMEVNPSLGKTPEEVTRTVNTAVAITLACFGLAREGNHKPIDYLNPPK
Chain of Human Arginase 2 (P78540 23-354): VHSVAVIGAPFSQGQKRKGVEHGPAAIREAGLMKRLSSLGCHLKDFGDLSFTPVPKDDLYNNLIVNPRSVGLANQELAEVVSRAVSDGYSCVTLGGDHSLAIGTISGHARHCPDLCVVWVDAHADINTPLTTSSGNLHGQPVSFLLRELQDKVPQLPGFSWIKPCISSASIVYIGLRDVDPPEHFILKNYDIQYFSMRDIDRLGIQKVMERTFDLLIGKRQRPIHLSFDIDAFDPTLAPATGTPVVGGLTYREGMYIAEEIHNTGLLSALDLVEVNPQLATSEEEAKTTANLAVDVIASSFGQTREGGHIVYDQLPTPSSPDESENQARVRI

Consider `N[C@H]1CN[C@@](CCCCB(O)O)(C(=O)O)C1` [Example 7, (2R,4R)-4-amino-2-(4-boronobutyl)pyrrolidine-2-carboxylic acid], for which, in data set [1] (male, rat, iv), the clearance amounted to 8.9 mL/min/kg and the Vd is 0.26 L/kg. In data set [2], the “Cl (mL/min/kg)” value was 8.90 * mL/min/kg and the “Vdss (L/kg)” value is recorded as 0.26 * L/kg.

As to `CC(C)[C@H](N)C(=O)N[C@H]1CN[C@]2(CCCCB(O)OC2=O)C1` [Example 19, (S)-2-amino-N-((3R,5R)-8-hydroxy-6-oxo-7-oxa-1-aza-8-boraspiro[4.7]dodecan-3-v1)-3-methylbutanamide], the IC50 at Human Arginase 1 was determined as 220 nM. Moreover, the IC50 on Human Arginase 2 was 280 nM. In data set [1] (setting [4]), the clearance is 36.8 mL/min/kg and the Vd stood at 0.2 L/kg. In addition, in data set [1] (setting [5]), the AUC was found to be 0.21 µM·h, the Cmax is 330 nM, the Tmax came out at 15 min and the bioavailability was found to be 2.5%. The “conversion to compound A under acidic condition” value in data set [3] (compound B in 0.1 M DCl in D2O) is “almost complete conversion to compound A”. Further, the “proportion of compound A relative to compound B” value in data set [3] (compound B in 100% D2O) is “approximately 90%”.

Take `CC(C)(O)[C@H](N)C(=O)N[C@H]1CN[C@@](CCCCB(O)O)(C(=O)O)C1` [Example 20, (2R,4R)-4-[[(2S)-2-amino-3-hydroxy-3-methyl-butanoyl]amino]-2-(4-boronobutyl)pyrrolidine-2-carboxylic acid]: the IC50 on Human Arginase 1 stood at 340 nM. Also, the IC50 on Human Arginase 2 came to 520 nM. In data set [1] (setting [4]), the clearance amounted to 8.9 mL/min/kg and the Vd is 0.29 L/kg. For the same compound, in data set [1] (setting [5]), the AUC was 6.9 µM·h, the Cmax is 1800 nM, the Tmax is 60 min and the bioavailability stood at 25.5%.

For orientation: IC50 means the point on the concentration scale where inhibition reaches its midpoint. The term AUC denotes the area under the concentration-time curve, a measure of exposure. What is called Cmax is the maximum level reached in the sampled fluid or tissue. A word on the Tmax: it is the time from dosing to the highest level. Usually bioavailability stands for the share of a dose that reaches the circulation, judged against a reference dose that is usually intravenous.
